In the supplement of paper PMC11208160:

Test: recombinant barcode read abundance after kanamycin selection (control-corrected) (log10(CPM+1)); higher = more efficient recombination; sequences stand for … in AGTGCAGAGAAAATCGGCCAGTTTTCTCTGCCTGCAGTCCGCATGCCGT…AGATTTATGCAGCGGACTGCCTTTCTCCCAAAGTGATAAACCGGACAGTATCATGGACCGGTTTTCCCGGTAATCCGTATTTGCAAGGTTGGTTTCACT; site = the 11-nt target
How it was run: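 The screen was pooled in E. coli and paired targets with IS621 bridge RNA target-binding loops. Recombination efficiency is taken from barcode counts per million at recombinant junctions, averaged and adjusted against the control. Values, in the form log10(CPM+1), come from duplicate plating on chloramphenicol/ampicillin LB agar or on chloramphenicol/ampicillin/kanamycin with 0.1 mM IPTG.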
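Further: IS621 recombinase and bridge RNA in Escherichia coli cells.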

| Sequence | recombinant barcode read abundance (log10) |
| --- | --- |
| TCTGGGGCTTGGGTTCTAACCTGTTGCAG (site TCTGGGGCTCA) | 0.686 |
| TCTGGGGCTTGGGTTCTAACCTGTTGCAG (site TCTGGGGCTCC) | 0.189 |
| TCTGGGGCTTGGGTTCTAACCTGTTGCAG (site TCTGGGGCTCG) | 0.159 |
| TCTGGGGCTTGGGTTCTAACCTGTTGCAG (site TCTGGGGCTCT) | 2.15 |
| TCTGTCTCTTGGGTTCTAACCTGTTGCCT (site TCTGTCTCTAG) | 2.03 |
| TCTGTCTCTTGGGTTCTAACCTGTTGCCT (site TGTGTCTCTAC) | 0.0569 |
| TCTTGGACTTGGGTTCTAACCTGTTGCTA (site TCTTGGACTAA) | 0.214 |
| TCTTGGACTTGGGTTCTAACCTGTTGCTA (site TCTTGGACTCA) | 0.0354 |
| TCTTGGACTTGGGTTCTAACCTGTTGCTA (site TCTTGGACTGA) | 0.0809 |
| TCTTGGACTTGGGTTCTAACCTGTTGCTA (site TCTTGGACTTA) | 0.0613 |
| TGAAAGTCTTGGGTTCTAACCTGTTGCCT (site TGAAAGTCTAG) | 0.727 |
| TGAAAGTCTTGGGTTCTAACCTGTTGCCT (site TGAACGTCTAG) | 0.0267 |
| TGAAAGTCTTGGGTTCTAACCTGTTGCCT (site TGAAGGTCTAG) | 0.15 |
| TGAAAGTCTTGGGTTCTAACCTGTTGCCT (site TGAATGTCTAG) | 0.0411 |
| TGAACTCCTTGGGTTCTAACCTGTTGCCT (site GTAACTCCTAG) | 0.118 |
| TGAACTCCTTGGGTTCTAACCTGTTGCCT (site TGAACTCCTAG) | 0.122 |
| TGACATTCTTGGGTTCTAACCTGTTGCTT (site GGACATTCTAA) | 0.139 |
| TGACATTCTTGGGTTCTAACCTGTTGCTT (site TGACATTCTAA) | 0.13 |
| TGAGACACTTGGGTTCTAACCTGTTGCTG (site TGACACACTCA) | 0.0729 |
| TGAGACACTTGGGTTCTAACCTGTTGCTG (site TGAGACACTCA) | 2.68 |
| TGAGACTCTTGGGTTCTAACCTGTTGCCT (site TGAGACTCTAG) | 2.2 |
| TGAGACTCTTGGGTTCTAACCTGTTGCCT (site TGCGACTCTAG) | 0.0734 |
| TGAGACTCTTGGGTTCTAACCTGTTGCCT (site TGGGACTCTAG) | 0.198 |
| TGAGACTCTTGGGTTCTAACCTGTTGCCT (site TGTGACTCTAG) | 0.463 |
| TGAGCTACTTGGGTTCTAACCTGTTGCAC (site TGAGCTACTGT) | 1.16 |
| TGAGCTACTTGGGTTCTAACCTGTTGCAC (site TGTGCGACTGT) | 0.0102 |

| Sequence | recombinant barcode read abundance (log10) |
| --- | --- |
| TGAGGATCTTGGGTTCTAACCTGTTGCCT (site TGAGGATCTAG) | 0.99 |
| TGAGGATCTTGGGTTCTAACCTGTTGCCT (site TGAGGCACTAG) | 0.503 |
| TGAGGGACTTGGGTTCTAACCTGTTGCCT (site CTCATAGCTTC) | 0.0546 |
| TGAGGGACTTGGGTTCTAACCTGTTGCCT (site TGAGGGACTAG) | 1.9 |
| TGAGTCCCTTGGGTTCTAACCTGTTGCTT (site TGAGTACCTAA) | 0.0411 |
| TGAGTCCCTTGGGTTCTAACCTGTTGCTT (site TGAGTCCCTAA) | 1.67 |
| TGAGTCCCTTGGGTTCTAACCTGTTGCTT (site TGAGTGCCTAA) | 0.0566 |
| TGAGTCCCTTGGGTTCTAACCTGTTGCTT (site TGAGTTCCTAA) | 0.125 |
| TGAGTGCCTTGGGTTCTAACCTGTTGCTT (site TGAGTACCTAA) | 0.682 |
| TGAGTGCCTTGGGTTCTAACCTGTTGCTT (site TGAGTCCCTAA) | 0.116 |
| TGAGTGCCTTGGGTTCTAACCTGTTGCTT (site TGAGTGCCTAA) | 1.1 |
| TGAGTGCCTTGGGTTCTAACCTGTTGCTT (site TGAGTTCCTAA) | 0.0622 |
| TGATCCTCTTGGGTTCTAACCTGTTGCTA (site AGGTCCTCTTA) | 0.0555 |
| TGATCCTCTTGGGTTCTAACCTGTTGCTA (site TGATCCTCTTA) | 0.513 |
| TGCACTCCTTGGGTTCTAACCTGTTGCCT (site TACAGTCCTAG) | 0.0234 |
| TGCACTCCTTGGGTTCTAACCTGTTGCCT (site TGCACTCCTAG) | 0.0424 |
| TGCATAGCTTGGGTTCTAACCTGTTGCAG (site CTGCAGTCTTG) | 0.00928 |
| TGCATAGCTTGGGTTCTAACCTGTTGCAG (site TGCATAGCTCT) | 1.49 |
| TGCCAGACTTGGGTTCTAACCTGTTGCGT (site AGCCACACTAC) | 0.0104 |
| TGCCAGACTTGGGTTCTAACCTGTTGCGT (site TGCCAGACTAC) | 1.74 |
| TGCCCCTCTTGGGTTCTAACCTGTTGCCG (site ACAAGGCCTAT) | 0.0768 |
| TGCCCCTCTTGGGTTCTAACCTGTTGCCG (site TGCCCCTCTCG) | 1.46 |
| TGCCCTCCTTGGGTTCTAACCTGTTGCTT (site TCCTCTCCTAA) | 0.0862 |
| TGCCCTCCTTGGGTTCTAACCTGTTGCTT (site TGCCCTCCTAA) | 0.0976 |
| TGCCTCTCTTGGGTTCTAACCTGTTGCTA (site GTTAGACCTAG) | 0.0422 |
| TGCCTCTCTTGGGTTCTAACCTGTTGCTA (site TGCCTCTCTTA) | 0.279 |

| Sequence | recombinant barcode read abundance (log10) |
| --- | --- |
| TGCGATACTTGGGTTCTAACCTGTTGCTT (site ACACGAGCTCT) | 0.0799 |
| TGCGATACTTGGGTTCTAACCTGTTGCTT (site TGCGATACTAA) | 0.223 |
| TGCGGGTCTTGGGTTCTAACCTGTTGCCT (site GAGCTTGCTTC) | 0.273 |
| TGCGGGTCTTGGGTTCTAACCTGTTGCCT (site TGCGGGTCTAG) | 0.702 |
| TGCGTTCCTTGGGTTCTAACCTGTTGCGT (site TGCGTCACTAC) | 0.0759 |
| TGCGTTCCTTGGGTTCTAACCTGTTGCGT (site TGCGTTCCTAC) | 0.88 |
| TGCTAGGCTTGGGTTCTAACCTGTTGCCT (site TGCTAGGCTAG) | 0.0609 |
| TGCTAGGCTTGGGTTCTAACCTGTTGCCT (site TGTCAGGCTAG) | 0.0576 |
| TGCTCGGCTTGGGTTCTAACCTGTTGCCT (site AGCTCCGCTAG) | 0 |
| TGCTCGGCTTGGGTTCTAACCTGTTGCCT (site TGCTCGGCTAG) | 0.0603 |
| TGCTCTACTTGGGTTCTAACCTGTTGCTT (site TGATCTACTAA) | 0.122 |
| TGCTCTACTTGGGTTCTAACCTGTTGCTT (site TGCTCTACTAA) | 0.0286 |
| TGCTCTACTTGGGTTCTAACCTGTTGCTT (site TGGTCTACTAA) | 0.0891 |
| TGCTCTACTTGGGTTCTAACCTGTTGCTT (site TGTTCTACTAA) | 0.00634 |
| TGCTGTGCTTGGGTTCTAACCTGTTGCCT (site TGCTGTACTAG) | 0.0329 |
| TGCTGTGCTTGGGTTCTAACCTGTTGCCT (site TGCTGTCCTAG) | 0.179 |
| TGCTGTGCTTGGGTTCTAACCTGTTGCCT (site TGCTGTGCTAG) | 0.29 |
| TGCTGTGCTTGGGTTCTAACCTGTTGCCT (site TGCTGTTCTAG) | 0.279 |
| TGGAACACTTGGGTTCTAACCTGTTGCCT (site TGGAACACTAG) | 0.98 |
| TGGAACACTTGGGTTCTAACCTGTTGCCT (site TGGACCACTAG) | 0.0483 |
| TGGAACACTTGGGTTCTAACCTGTTGCCT (site TGGAGCACTAG) | 0.0596 |
| TGGAACACTTGGGTTCTAACCTGTTGCCT (site TGGATCACTAG) | 0.119 |
| TGGACCTCTTGGGTTCTAACCTGTTGCCA (site CTACGAACTCC) | 0.626 |
| TGGACCTCTTGGGTTCTAACCTGTTGCCA (site TGGACCTCTTG) | 0.222 |
| TGGACGTCTTGGGTTCTAACCTGTTGCCT (site TGGACGCCTAG) | 0.125 |
